Experiments:
MDA-MB-231 cells = assay: Cell viability, WST-8 reagent, absorbance at 450nm; format: cell-based; conditions: ceramide alone dispersed in aqueous solution in the same amount as in Examples 1 and 2, column purified
Method: (§1) MDA-MB-231 and MDA-MB-468 cells were cultured at 37°C under 10% fetal bovine serum (FBS) and ATCC modified RPMI medium (Gibco) supplemented with 1% penicillin/streptomycin, 5% CO2.
(§2) For experiments, lipid nanoparticles prepared at each concentration of C18-ceramide were respectively treated (the number of particles: 4.5 x 10^8 ± 2.05 x 10^8) to MDA-MB-231 and MDA-MB-468 cells which were inoculated into a 96-well plate (1.5 x 10^3 cells/well). After 24 hours of incubation, WST-8 reagent (Dojindo) was added to the medium at 37°C for 1 hour. Absorbance was measured at 450nm using a microplate reader (BioTek). Thereafter, cell viability was confirmed by measuring absorbance every 24 hours.

MDA-MB-468 cells = assay: Cell viability, WST-8 reagent, absorbance at 450nm; format: cell-based; conditions: ceramide alone dispersed in aqueous solution in the same amount as in Examples 1 and 2, column purified
Method: as §1, §2
In addition, the cell viability of MDA-MB-468 cells was reduced to 53% when lipid nanoparticles of 5 mM C18-ceramide were treated (FIG. 9b).

[1] = tested on: apoptosis-related proteins (BAX, BAD, BCL2, and cleaved caspase3); assay: Western blotting of apoptosis-related proteins in MDA-MB-468 cells; format: cell-based; conditions: ceramide alone dispersed in aqueous solution in the same amount as in Examples 1 and 2, column purified
Method: MDA-MB-468 cells were cultured in ATCC modified RPMI medium (Gibco) supplemented with 10% fetal bovine serum (FBS) and 1% penicillin/streptomycin at 37°C under 5% CO2.
For experiments, MDA-MB-468 cells were seeded onto 60 mm^2 cell culture plates (1.3 x 10^6 cells/plate). After 24 hours, LNP prepared at different concentrations of C18-ceramide was calculated and added to 2.5 mL opti-MEM medium per well such that 2.48 x 10^11±2.75 x 10^10 particles were included in the medium. The medium containing LNP was treated and incubated at 37°C for 24 hours.
Thereafter, the cells were collected, and western blotting was performed. For this purpose, MDA-MB-468 cells treated with LNP were lysed in RIPA buffer containing a protease inhibitor and a phosphatase inhibitor (Sigma). Total cell lysates were quantified using the BCA protein assay kit (Thermo Scientific). Next, the cell lysate (50 µg) was loaded on a 4-15% gradient SDS-PAGE gel (Biorad) under denaturing conditions and transferred to a PVDF membrane (iBlot2 Dry Blotting System, Thermo Scientific). […]
The secondary antibody conjugated with HRP was reacted at room temperature for 2 hours, and then the membrane was treated with Western ECL, and the luminescence image was analyzed using LAS500 (GE Healthcare), and the results are shown in FIG. 10.

[2] = Solubility of C18-ceramide itself in aqueous solution; format: physicochemical; conditions: without lipid nanoparticles

CCCCCCCC/C=C\CCCCCCCC(=O)N[C@@H](CO)[C@H](O)[C@H](O)CCCCCCCCCCCCCC (stereo in doubt) [C18-ceramide, N-Oleoyl-phytosphingosine]
cell survival rate (MDA-MB-231 cells): no change
cell survival rate (MDA-MB-468 cells): no change
antitumor-related protein expression [1]: no change
solubility in an aqueous solution [2]: insoluble
